For assay [1], the system named is db/db mice. In words: Antidiabetic effects in db/db mice, Example B (2 weeks daily oral dosing). Type of assay: in vivo, mouse. The text has this:
db/db mice have a defect in leptin signaling, leading to hyperphagia, obesity and diabetes. Moreover, unlike ob/ob mice on a C57BL/6J background, db/db mice on a C57BL/KS background undergo failure of their insulin-producing pancreatic islet cells, resulting in progression from hyperinsulinemia (associated with peripheral insulin resistance) to hypoinsulinemic diabetes.
Male obese (db/db homozygote) C57BL/Ksola mice approximately 8 weeks of age, were obtained from Jackson Labs (Bar Harbor, Me.) and randomly assigned into groups of 5-7 animals such that the body weights (50-55 g) and serum glucose levels (≧300 mg/dl in fed state) were similar between groups; male lean (db/+heterozygote) mice served as cohort controls. A minimum of 7 days was allowed for adaptation after arrival. All animals were maintained under controlled temperature (23° C.), relative humidity (50±5%) and light (7:00-19:00), and allowed free access to standard chow (Formulab Diet 5008, Quality Lab Products, Elkridge, Md.) and water.
Treatment cohorts were given daily oral doses of Vehicle (1% hydroxypropylmethylcellulose), Compounds BI, CE, BT, BV, […] or Fenofibrate for 2 weeks. At the end of the treatment period 100 μl of venous blood was withdrawn in a heparinized capillary tube from the retro-orbital sinus of db/db mice for serum chemistry analysis.

Assay [2] has as its target T1, Human PPARα LBD fusion protein (Homo sapiens, UniProt Q07869).
T1 construct: a.a; 167-468)
T1 sequence (Q07869 167-468): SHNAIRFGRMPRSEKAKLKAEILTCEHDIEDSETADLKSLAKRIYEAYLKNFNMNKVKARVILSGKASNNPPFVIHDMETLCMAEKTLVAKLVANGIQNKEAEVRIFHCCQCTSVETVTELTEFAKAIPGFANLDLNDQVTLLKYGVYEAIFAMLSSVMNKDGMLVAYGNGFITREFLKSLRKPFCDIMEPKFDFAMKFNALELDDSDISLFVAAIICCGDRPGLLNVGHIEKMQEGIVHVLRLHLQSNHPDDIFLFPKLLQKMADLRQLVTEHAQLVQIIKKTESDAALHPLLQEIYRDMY
The experiment in a line: Transcription activation potential, GAL4 luciferase reporter in C3A cells. The format is cell-based. The method, then:
(§1) Cells were seeded in 24 well plates the day prior to transfection at 5×10^4−2×10^5 cells/well, depending upon cell type. Cells were transfected using Lipofectamine 2000 reagent from Invitrogen. A total of 0.8 μg DNA/well was added to 50 μL of Optimem Reduced Serum media (serum free; Gibco). Lipofectamine 2000 was added (2.5 μL/well) to another tube containing 50 μL of Optimem media. Plasmid DNA was added at a ratio of 4:3 (reporter:activator); where appropriate, salmon sperm DNA was substituted for activator expressing plasmid. The reporter plasmid used was pFR-Luc, which has the firefly luciferase gene under the control of a GAL4 UAS ([…]) containing promoter. The activator expressing plasmids contain yeast GAL4 DNA binding domain (dbd) fusion of either human PPARα ligand binding domain (LBD; a.a. 167-468) or human PPARγ LBD (a.a. 176-479). DNA constructs containing the mouse PPARα or PPARγ LBD fused to the GAL4 DNA binding domain were also used. The two solutions were incubated at room temperature for 5 min, and then combined. The combined solution was incubated at room temperature for approximately 30 min. Cells were washed once with PBS, and 100 μL of transfection mix added to each well. Plates were incubated at 37° C. in a 5% CO2 incubator for 4.5 hr, followed by aspiration of the transfection mix, with plates refed using EMEM complete media (supplemented with 10% FBS, 1× Glutamine). 24 hr post-transfection, plates were treated with the appropriate compounds in EMEM complete media, followed by washing once with PBS and addition of 100 μL 1× reporter lysis buffer/well (Promega) 24 hr after treatment. Plates went through one freeze/thaw cycle prior to analysis. Approximately 10 μL of lysate was added to 100 μL of firefly luciferase substrate, mixed by pipetting, and analyzed on a luminometer for 10 s using the integration function (relative luciferase units/RLU) or on a Microbeta Trilux (luciferase counts per second/LCPS). Each treatment was performed in triplicate, and in multiple, separate experiments.
A general note: A reporter such as luciferase makes a cellular process visible.

Assay [3] has as its target T2, Mouse PPARα LBD fusion protein (Mus musculus, UniProt P23204).
T2 sequence (P23204 239-466): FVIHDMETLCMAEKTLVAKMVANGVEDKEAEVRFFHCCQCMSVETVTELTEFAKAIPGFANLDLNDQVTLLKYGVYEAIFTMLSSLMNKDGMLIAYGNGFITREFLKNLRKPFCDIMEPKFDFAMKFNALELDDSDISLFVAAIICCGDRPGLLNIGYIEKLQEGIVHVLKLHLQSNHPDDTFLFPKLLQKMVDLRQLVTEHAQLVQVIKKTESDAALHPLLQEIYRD
The assay is described as above. Conditions: Table 20a. Type of assay: cell-based. The method, then:
as §1

Assay [4] has as its system Human PPARγ LBD fusion protein. The assay is described as above. Type of assay: cell-based. The method, then:
(§2) Cells were seeded in 24 well plates the day prior to transfection at 5×10^4−2×10^5 cells/well, depending upon cell type. Cells were transfected using Lipofectamine 2000 reagent from Invitrogen. A total of 0.8 μg DNA/well was added to 50 μL of Optimem Reduced Serum media (serum free; Gibco). Lipofectamine 2000 was added (2.5 μL/well) to another tube containing 50 μL of Optimem media. Plasmid DNA was added at a ratio of 4:3 (reporter:activator); where appropriate, salmon sperm DNA was substituted for activator expressing plasmid. […] DNA constructs containing the mouse PPARα or PPARγ LBD fused to the GAL4 DNA binding domain were also used. The two solutions were incubated at room temperature for 5 min, and then combined. The combined solution was incubated at room temperature for approximately 30 min. Cells were washed once with PBS, and 100 μL of transfection mix added to each well. Plates were incubated at 37° C. in a 5% CO2 incubator for 4.5 hr, followed by aspiration of the transfection mix, with plates refed using EMEM complete media (supplemented with 10% FBS, 1× Glutamine). 24 hr post-transfection, plates were treated with the appropriate compounds in EMEM complete media, followed by washing once with PBS and addition of 100 μL 1× reporter lysis buffer/well (Promega) 24 hr after treatment. Plates went through one freeze/thaw cycle prior to analysis. Approximately 10 μL of lysate was added to 100 μL of firefly luciferase substrate, mixed by pipetting, and analyzed on a luminometer for 10 s using the integration function (relative luciferase units/RLU) or on a Microbeta Trilux (luciferase counts per second/LCPS). Each treatment was performed in triplicate, and in multiple, separate experiments.

Assay [5] concerns the target T3, Mouse PPARγ LBD fusion protein (Mus musculus, UniProt P37238).
T3 sequence (P37238 238-503): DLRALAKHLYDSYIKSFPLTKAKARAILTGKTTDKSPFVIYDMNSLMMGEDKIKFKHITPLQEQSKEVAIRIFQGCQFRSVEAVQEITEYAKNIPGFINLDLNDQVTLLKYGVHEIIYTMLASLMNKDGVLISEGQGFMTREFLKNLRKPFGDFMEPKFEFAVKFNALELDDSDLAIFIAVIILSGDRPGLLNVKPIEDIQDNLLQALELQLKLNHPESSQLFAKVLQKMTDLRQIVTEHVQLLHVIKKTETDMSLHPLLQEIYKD
The assay is described as above. The format is cell-based. The note with it: Table 20b. The method, then: as §2

For assay [6], the system named is db/db mice. In words: Antidiabetic effects in db/db mice, Example C (17 days daily oral dosing). The format is in vivo, mouse. The note with it: 300 mg/kg daily oral. The text has this: C57BL/Ksola (db/db) mice have a defect in leptin signaling, leading to hyperphagia, obesity and diabetes. Moreover, unlike ob/ob mice on a C57BL/6J background, db/db mice on a C57BLKS background undergo failure of their insulin-producing pancreatic islet cells, resulting in progression from hyperinsulinemia (associated with peripheral insulin resistance) to hypoinsulinemic diabetes.
Male obese (db/db homozygote) C57BL/Ksola mice approximately 8 weeks of age, were obtained from Jackson Labs (Bar Harbor, Me.) and sorted into groups of 7 animals each animals such that the body weights (40-45 g) and serum glucose levels (≧300 mg/dl in fed state) were similar between groups. A minimum of 7 days was allowed for adaptation after arrival. All animals were maintained under controlled temperature (23° C.), relative humidity (50±5%) and light (7:00-19:00), and allowed free access to standard chow (Formulab Diet 5008, Quality Lab Products, Elkridge, Md.) and water.
Treatment cohorts were given daily oral doses of vehicle (1% hydroxypropylmethylcellulose), Compounds BI, CF, CG, or phenylacetate for 17 days. At the end of the treatment period, blood samples were collected and serum glucose and triglycerides were measured.

Where [7] appears, read: serum, 2 weeks daily oral, dose not given in Table 17 (see Table 16).

In the case of `Cc1cccc(C)c1COc1cccc(CCCC(=O)O)c1` [CE, 4-(3-(2,6-Dimethylbenzyloxy)phenyl)butyric acid], the “Glucose (% of Control)” value in assay [1] (93 mg/kg daily oral, 2 weeks) was 54 ± 8 % of Control. The “Glucose” value in assay [1] (nonfasting, 93 mg/kg daily oral, 2 weeks) amounted to 372.0 ± 53.8 mg/dL. In addition, the “Free Fatty Acids ± SEM” value in assay [1] (setting [7]) came out at 2867.4 ± 267.7 µM. Also, the “Triglycerides ± SEM” value in assay [1] (setting [7]) was 132.0 ± 15.2 mg/dL. Moreover, the “transcription activation potential (luciferase) ± standard deviation” value is reported as 14.7 ± 14.6 LCPS in assay [2] (1 μM); 13.2 ± 5.8 LCPS in assay [2] (3 μM); 26.2 ± 1.4 LCPS in assay [2] (10 μM); 10.67 ± 1.2 LCPS in assay [2] (30 μM); 6.33 ± 2.6 LCPS in assay [2] (100 μM); 12.8 ± 3.7 LCPS in assay [2] (200 μM). The “transcription activation potential (luciferase) ± standard deviation” value in assay [3] (1 μM) came to 9.47 ± 2.14 LCPS; in assay [3] (3 μM), 9.57 ± 2.61 LCPS; in assay [3] (10 μM), 1.17 ± 2.49 LCPS; in assay [3] (30 μM), 7.4 ± 0.23 LCPS; in assay [3] (100 μM), 6.13 ± 0.17 LCPS; in assay [3] (200 μM), 8 ± 1.88 LCPS. For the same compound, the “transcription activation potential (luciferase) ± standard deviation” value in assay [4] (1 μM test compound) was found to be 60 ± 11.6 LCPS; in assay [4] (3 μM test compound) it was 73.3 ± 30.9 LCPS; in assay [4] (10 μM test compound) it was 57.3 ± 22.6 LCPS; in assay [4] (30 μM test compound) it was 28.5 ± 16.4 LCPS; in assay [4] (100 μM test compound), 37.7 ± 23.4 LCPS; in assay [4] (200 μM test compound), 12.3 ± 4.8 LCPS. For the same compound, the “transcription activation potential (luciferase) ± standard deviation” value in assay [5] (1 μM test compound) was 14.3 ± 4.5 LCPS; in assay [5] (3 μM test compound), 13.43 ± 8.5 LCPS; in assay [5] (10 μM test compound), 6.03 ± 3.75 LCPS; in assay [5] (30 μM test compound) it was 9.6 ± 5.46 LCPS; in assay [5] (100 μM test compound), 11.7 ± 11.7 LCPS; in assay [5] (200 μM test compound), 10.5 ± 9.2 LCPS.
For `O=C(O)Cc1ccccc1` [Phenylacetate, reference compound], in assay [6], the “Glucose mg/dL (±SEM)” value is on record as 661 ± 64 mg/dL and the “Triglycerides” value is reported as 171 ± 33 mg/dL.

The values above are taken from patent US7932290B2, “Method for the treatment of metabolic disorders” (Wellstat Biologics Corporation, priority 2003, dated 2011).
